{
  "source": "patent US10219794B2",
  "about": "“Method of treating pleural abnormality” (National Taiwan University, priority 2014, dated 2019)",
  "system": "TC-1 cell line (mouse lung cancer cell line)",
  "type": "cell-based",
  "conditions": "TC-1 cells, released from PCL membrane",
  "experimental": "In one embodiment, the drug release rates of different kinds of the biodegradable polymeric membrane were tested. There were 6 experimental groups and 1 control group. Control group: TCPS (Tissue Culture Polystyrene); experimental group 1: the non-porous PCL membrane without any drugs; experimental group 2: the non-porous PCL membrane with 1 μg/ml of Cisplatin (0.3 μg/well); experimental group 3: the non-porous PCL membrane with 10 μg/ml of Cisplatin (3 μg/well); experimental group 4: the porous PCL membrane without any drugs; experimental group 5: the porous PCL membrane with 1 μg/ml of Cisplatin (0.3 μg/well); and experimental group 6: the porous PCL membrane with 10 μg/ml of Cisplatin (3 μg/well). The pores of the above porous PCL membrane were created by 0.01 g/mL of NaCl.\nIn this embodiment, different kinds of membranes with drugs were cultured in TC-1 cell line (mouse lung cancer cell line) for three days, and the cell growth and cytotoxicity were measured by using AlamarBlue™. The absorbance was at 570 nm and 600 nm as the background.",
  "data": [
    {"smiles": "N.N.[Cl][Pt][Cl]", "note": "[cisplatin]", "values": [
      {"measurement": "killing cancer cells", "result": "capability of killing cancer cells"}
    ]}
  ]
}
